{
  "source": "patent US20210085801A1",
  "about": "“A[…] COPOLYMERS, […], AND METHODS FOR TREATING OR […] FAILURE” (CARDIOL THERAPEUTICS INC., priority 2017, published 2021)",
  "key": {"[1]": {"assay": "Pharmacokinetic animal study, subcutaneous injection", "details": "SC, single dose 10 mg/kg, rats, plasma CBD", "experimental": "Cannulated adult male Sprague-Dawley rats were used for the pharmacokinetic experiments.\nRats were divided into 2 groups (n=4/group). Groups 1 and 2 received CBD either encapsulated in PEO-PBCL23 (referred to herein as Micellar CBD (DP 23)) or in free form (CBD dissolved in polyethylene glycol 400 (also referred to as PEG 400)). The administration was by way of subcutaneous injection in the right flank. A single dose of 10 mg/kg was administered to the rats of all groups.\nSerial blood samples (200 μL) were collected using jugular vein catheters prior to CBD administration and at 0.25, 0.5, 0.75, 1, 2, 4, 6, 12 and 24, 48 and 72 hours post CBD administration. Plasma was separated (by using a centrifuge) from the samples and kept at −20° C. until it was analyzed for drug content.\n100 μL of plasma samples were analyzed for CBD content as follows. The samples were spiked with internal standard (CBD d3 1 μg/mL) and 400 μL of cold acetonitrile was added to each sample. The mixture was vortexed for 1 minute and then 400 μL of water was added and the resulting mixture was further vortexed for 1 minute. Then 4 mL n-Hexane was added and the resulting mixture further vortexed for 5 minutes. The samples were centrifuged at 1160×g for 15 minutes and the organic phase layers were separated and transferred to clean tubes and evaporated to dryness. The residue was then analyzed for CBD content using a liquid chromatography-mass spectrometry (LC-MS) method involving the use of a Waters Quattro Micro triple quadrupole mass spectrometer. The residue samples were ran in MRM mode using the 315 to 193 transition for CBD, 318 to 196 for Cannabidiol-D3 solution and 311 to 223 for Cannabinol (CBN). A C18 Agilent Poroshell 120 EC column (2.1×50 mm; 2.7 μm particles) was used. The mobile phase consisted of 0.1% formic acid in HPLC-grade water (Solution A) and 0.1% formic acid in HPLC-grade acetonitrile (Solution B). A gradient elution was programmed to co33mmence with 40% Solution B for post-injection followed by gradual increase in 3 min. of Solution B to 95%. […] The flow rate was 0.3 mL/min. and 2 μL was injected. The lowest limit of quantification was set at 10 ng/mL.\nThe total amount of CBD that entered the bloodstream (AUC0-t; 72 h) was calculated using the trapezoidal rule from 0 to the last measured plasma concentration (Clast). The terminal elimination rate constant (β) was estimated using the linear least square regression of the log-linear phase of the concentration-time. Cmax and Tmax were the highest observed concentration and corresponding sampling time point."}, "[2]": {"assay": "In vitro release study (dialysis bag, 4% BSA)", "format": "physicochemical", "details": "dialysis bag in 300 mL 4% BSA, 37° C.", "procedure": "An in vitro release study was performed to determine the in vitro release characteristic of free CBD and the above micelle encapsulated CBD formulations (Micellar CBD (DP 23) and d Micellar CBD (DP 15)).\nEach of three formulations shown in Table 4 having equal concentrations of CBD were placed in separate Spectra/Por dialysis bags (molecular weight cut-off=12,000-14,000 g mol-1). The dialysis bags were sealed with clips and placed in a beaker with 300 mL 4% bovine serum albumin (BSA), then in a 37° C. shaker. At time 0 and 24 hours, the volume within each bag was measured, and a sample of each solution was taken from inside the dialysis bag and quantified by HPLC. The protocol that was used is described in Aliabadi et al, Journal of Controlled Release (2005) 104 (2), 301-311, which protocol is incorporated herein by reference."}},
  "data": [
    {"smiles": "C=C(C)[C@@H]1CCC(C)=C[C@H]1c1c(O)cc(CCCCC)cc1O", "note": "[Free-CBD, Cannabidiol]", "values": [
      {"measurement": "AUC0-6", "setting": "[1]", "value": "209.45 ± 210.52", "unit": "ng·h/mL"},
      {"measurement": "AUC0-72 h", "setting": "[1]", "value": "687.12 ± 217.39", "unit": "ng·h/mL"},
      {"measurement": "Cmax", "setting": "[1]", "value": "94 ± 86.27", "unit": "ng/mL"},
      {"measurement": "tmax", "setting": "[1]", "value": "9 ± 10.13", "unit": "h"},
      {"measurement": "% CBD released after 24 hours", "setting": "[2]", "value": "rapid release"},
      {"measurement": "% CBD released after 24 hours", "setting": "[2]; listed as Free-CBD dissolved in acetonitrile", "value": 70.65, "unit": "%"}
    ]}
  ]
}
